Assay results from patent US9790218B2, “Small molecule activators of calcium-activated chloride channels and methods of use” (The Regents of the University of California, priority 2011, dated 2017).

How the values were obtained:
[1] = tested on: mouse ileal smooth muscle; experiment: Intestinal smooth muscle contraction, ex vivo mouse ileal segments; conditions: T16Ainh-A01 10 μM
Description: FIG. 8A-C. Intestinal smooth muscle contraction. FIG. 8A. Representative traces from mouse ileal segments showing effects of T16Ainh-A01 (10 μM), carbachol (CCh, 1 μM) and Eact (10 μM). FIG. 8B. Effect of CCh (1 μM) and Eact (10 μM) following atropine (1 μM). FIG. 8C. Summary of contraction frequency (left), and resting and maximum tone (right) (mean±S.E., n=4-7, * P<0.05).
Wild type CD1 mice (age 8-10 weeks) were killed by avertin overdose (200 mg/kg). The ileum removed and washed with ice-cold HCO3^−-buffered solution. The ends of the ileal segments were tied with silk thread and connected to a force transducer. Beal segments were equilibrated for 60 min with a resting force of ˜1 mN, with changes of the bathing solution every 15 min. Tension was monitored continuously with a fixed-range precision force transducer (TSD, 125 C; Biopac, Goleta, Calif.) connected to a differential amplifier (DA 100B; Biopac). Data were recorded using MP100, Biopac digital acquisition system and analyzed using Acknowledge 3.5.7 software.
TMEM16A in expressed in the interstitial cells of Cajal, the pacemaker cells that control smooth muscle contraction dynamics in stomach and intestine (Huang et al., supra; Gomez-Pinilla et al. (2009) Am. J. Physiol. Gastrointest. Liver Physiol. 296, G1370-1381). The effect of Eact on mouse ileal smooth muscle contraction was investigated using an ex vivo intestinal preparation. […] Without wishing to be bound by theory, the constitutive TMEM16A activity in this ex vivo preparation could obscure Eact activity. To reveal Eact effects, atropine was first added to inhibit basal contractions. […] FIG. 8C summarizes data on contraction frequency, resting tone and maximal tone.

TMEM16A = biological target: T1, TMEM16A (Homo sapiens, UniProt Q5XXA6, DEL476-501); experiment: Fluorescence plate reader assay of TMEM16A-mediated I^− influx (YFP halide sensor); format: cell-based
T1 construct: expressed in transfected cells
T1 sequence (Q5XXA6 with tags, fused parts or gaps isoform Q5XXA6-5 DEL539-564): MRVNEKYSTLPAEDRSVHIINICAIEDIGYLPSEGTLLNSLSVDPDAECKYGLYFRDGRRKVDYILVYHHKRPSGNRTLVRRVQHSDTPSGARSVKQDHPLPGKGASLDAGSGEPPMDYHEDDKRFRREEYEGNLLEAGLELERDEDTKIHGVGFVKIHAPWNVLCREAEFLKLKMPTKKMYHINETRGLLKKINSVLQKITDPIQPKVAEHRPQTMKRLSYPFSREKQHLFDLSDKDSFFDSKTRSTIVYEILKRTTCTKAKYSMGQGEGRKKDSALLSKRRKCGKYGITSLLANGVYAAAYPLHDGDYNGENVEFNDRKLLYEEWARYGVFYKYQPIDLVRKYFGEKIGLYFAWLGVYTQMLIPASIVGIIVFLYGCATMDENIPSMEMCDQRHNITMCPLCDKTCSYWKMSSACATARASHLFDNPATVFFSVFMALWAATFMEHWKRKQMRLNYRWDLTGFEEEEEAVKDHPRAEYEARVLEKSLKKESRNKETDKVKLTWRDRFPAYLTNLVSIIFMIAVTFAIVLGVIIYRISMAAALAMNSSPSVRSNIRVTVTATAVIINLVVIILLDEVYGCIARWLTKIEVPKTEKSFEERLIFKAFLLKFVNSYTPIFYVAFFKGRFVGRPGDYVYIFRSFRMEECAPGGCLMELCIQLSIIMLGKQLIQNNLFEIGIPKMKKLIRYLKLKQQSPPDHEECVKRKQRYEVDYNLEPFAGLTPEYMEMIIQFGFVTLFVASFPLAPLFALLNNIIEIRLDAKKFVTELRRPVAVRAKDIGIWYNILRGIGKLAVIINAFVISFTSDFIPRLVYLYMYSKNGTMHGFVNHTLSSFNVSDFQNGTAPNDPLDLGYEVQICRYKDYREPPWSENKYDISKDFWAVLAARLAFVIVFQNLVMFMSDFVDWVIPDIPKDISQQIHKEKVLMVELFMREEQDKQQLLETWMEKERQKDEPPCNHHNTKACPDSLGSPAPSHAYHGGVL
Description: FRT cells were stably transfected with human TMEM16A (TMEM16A(abc), cDNA provided by Dr. Luis Galietta, Gaslini Institute, Genoa, Italy) and the halide sensor YFP-H148Q/1152L/F46L. Cells were plated in 96-well black-walled microplates (Corning Inc., Corning, N.Y.) at a density of 20,000 cells per well in Coon's modified F12 medium supplemented with 5% fetal calf serum, 2 mM L-glutamine, 100 U/mL penicillin and 100 μg/mL streptomycin. The human submandibular cell line A253 (ATCC HTB 41) was cultured in complete McCoy's 5A medium supplemented with 10% fetal bovine serum, 100 U/mL penicillin and 100 μg/mL streptomycin.
TMEM16A activators were identified from screening of ˜110,000 synthetic drug-like compounds, purified natural products and approved/investigational drugs. The cell-based screen employs FRT cells coexpressing human TMEM16A and the I^−-sensing yellow fluorescent protein YFP-H148Q/1152L/F46L. FRT cells were chosen because of their low basal I^− and Cl^− transport, rapid growth on uncoated plastic, strong stable expression of transfected proteins, and formation of tight junctions for measurements of transepithelial short-circuit current (Ma et al., supra).
High-throughput screening was done using an automated screening platform (Beckman) equipped with FluoStar fluorescence plate readers (BMG Lab Technologies, Durham, N.C.) as described (Ma et al., supra). Each well of a 96-well plate was washed 3 times with PBS (200 μL/wash), leaving 50 μL PBS. Test compounds (0.5 μL) were added to each well at […]. After 10 min, 96-well plates were transferred to a plate reader for fluorescence assay. Each well was assayed individually for TMEM16A-mediated I^− influx by recording fluorescence continuously (400 ms per point) for 2 s (baseline), then 50 μL of a 140 mM I^− solution was added. The initial rate of I^− influx was computed from fluorescence data by non-linear regression.
As diagrammed in FIG. 1A, test compounds at 25 μM final concentration were added 10 min prior to I^− addition. The 10 min incubation was chosen to allow for compound transport into cytoplasm and to minimize false positives from compounds that elevate cytoplasmic Ca^2+ transiently. Fluorescence from individual wells of 96-well plates was measured just prior to and for 6 s after I^− addition for computation of initial I^− influx rate.

CCc1c(C)nc(SCC(=O)Nc2nc(-c3ccc(OC)cc3)cs2)[nH]c1=O [T16Ainh-A01, reference compound]
spontaneous intestinal contractions at baseline [1]: inhibited

O=C(Nc1ccc(Br)cc1)c1cccc(-n2cnnn2)c1 [Fact, N-(4-bromophenyl)-3-(1H-tetrazol-1-yl)benzamide]
EC50 (TMEM16A): 37 µM
TMEM16A conductance, F class SAR (TMEM16A; synthesized F class analogs): increased TMEM16A conductance
